Experimental data as given in patent US20070134261A1, “Effectors of innate immunity” (priority 2001, published 2007).
Read-outs that look alike come from different tables or passages of the source. Marks after values point to notes of the source that are not given here. No end group written: not given here.

What was measured:
[1] = system: RAW 264.7 mouse macrophage cells; format: cell-based; details: Peptide 20 μg/ml; 100 ng/ml E. coli 0111:B4 LPS, 6 h
[2] = system: human bronchial epithelial cells (HBE); experiment: LDH release assay (Cytotoxicity Detection Kit); format: cell-based; details: 100 μg/ml, 24 hours; no peptide control 1.0 ± 0.05
Procedure: (§1) The potential toxicity of the peptides was measured in two ways. First, the Cytotoxicity Detection Kit (Roche) (Lactate dehydrogenase-LDH) Assay was used. It is a colorimetric assay for the quantification of cell death and cell lysis, based on the measurement of LDH activity released from the cytosol of damaged cells into the supernatant. LDH is a stable cytoplasmic enzyme present in all cells and it is released into the cell culture supernatant upon damage of the plasma membrane. An increase in the amount of dead or plasma membrane-damaged cells results in an increase of the LDH enzyme activity in the culture supernatant as measured with an ELISA plate reader, OD490 nm (the amount of color formed in the assay is proportional to the number of lysed cells). In this assay, human bronchial epithelial cells (I6HBEo14, HBE) cells were incubated with 100 μg of peptide for 24 hours, the supernatant removed and tested for LDH. The other assay used to measure toxicity of the cationic peptides was the WST-1 assay (Roche). This assay is a colorimetric assay for the quantification of cell proliferation and cell viability, based on the cleavage of the tetrazolium salt WST-1 by mitochondrial dehydrogenases in viable cells (a non-radioactive alternative to the [^3H]-thymidine incorporation assay). In this assay, HBE cells were incubated with 100 μg of peptide for 24 hours, and then 10 μl/well Cell Proliferation Reagent WST-1 was added. The cells are incubated with the reagent and the plate is then measured with an ELISA plate reader, OD490 nm.

HBE cells = experiment: WST-1 assay (cell viability); format: cell-based, human
Procedure: as §1

[3] = system: A549 human epithelial cells; experiment: Induction of chemokines (IL-8, MCP-1) in A549 cells (ELISA); format: cell-based; details: peptide 10 ug/ml, 24 hr
Procedure: The murine macrophage cell line RAW 264.7, THP-1 cells (human monocytes), a human epithelial cell line (A549), human bronchial epithelial cells (16HBEo14), and whole human blood were used. HBE cells were grown in MEM with Earle's. THP-1 cells were grown and maintained in RPMI 1640 medium. The RAW and A549 cell lines were maintained in DMEM supplemented with 10% fetal calf serum. […] DMEM was aspirated from cells grown overnight and replaced with fresh medium. After incubation of the cells with peptide, the release of chemokines into the culture supernatant was determined by ELISA (R&D Systems, Minneapolis, Minn.).

[4] = format: cell-based; details: for MIC, S. aureus: Staphylococcus aureus
S. Typhimurium SL1344 = experiment: Intracellular survival/replication of S. Typhimurium SL1344 in IFN-γ-primed RAW cells (gentamicin-resistance assay); format: cell-based, Salmonella Typhimurium; details: pretreated with inhibitor 30 min prior to infection (50 μM U 0126, 50 μM PD 98059)
BALB/c mice = experiment: Lethal endotoxemia in galactosamine-sensitized BALB/c mice; format: in vivo; details: 2 μg LPS; peptide 200 μg/mouse = 8 mg/kg IP 15 min after LPS; 48 hours; no peptide 10
Human Jurkat T cells = experiment: SDF-1 induced migration of human Jurkat T cells (Transwell); format: cell-based; details: SDF-1 (100 ng/ml) alone, positive control 100%
Procedure: SDF-1, a C-X-C chemokine is a natural ligand for HIV-1 coreceptor-CXCR4. The chemokine receptors CXCR4 and CCR5 are considered to be potential targets for the inhibition of HIV-1 replication. […] The migration assays were performed as follows. Human Jurkat T cells were resuspended to 5×10^6/ml in chemotaxis medium (RPMI 1640/10 mM Hepes/0.5% BSA). Migration assays were performed in 24 well plates using […] polycarbonate Transwell inserts (Costar). Briefly, peptide or controls were diluted in chemotaxis medium and placed in the lower chamber while 0.1 ml cells (5×10^6/ml) was added to the upper chamber. After 3 hr at 37° C., the number of cells that had migrated into the lower chamber was determined using flow cytometry. The medium from the lower chamber was passed through a FACscan for 30 seconds, gating on forward and side scatter to exclude cell debris. The number of live cells was compared to a “100% migration control” in which 5×10^5/ml cells had been pipetted directly into the lower chamber and then counted on the FACscan for 30 seconds.

CC[C@H](C)[C@H](NC(=O)[C@@H](NC(=O)[C@H](CCCNC(=N)N)NC(=O)[C@@H](NC(=O)[C@@H]1CCCN1C(=O)[C@H](CO)NC(=O)[C@H](CCCCN)NC(=O)[C@H](Cc1ccccc1)NC(=O)[C@@H](NC(=O)[C@H](CCCNC(=N)N)NC(=O)[C@H](CC(C)C)NC(=O)[C@H](Cc1ccccc1)NC(=O)[C@H](CO)NC(=O)[C@H](CCCCN)NC(=O)[C@H](Cc1c[nH]c2ccccc12)NC(=O)[C@@H](N)CCCCN)[C@@H](C)O)C(C)C)[C@@H](C)O)C(=O)N[C@@H](Cc1ccccc1)C(=O)N[C@@H](Cc1c[nH]cn1)C(=O)N[C@H](C(=O)N[C@@H](C)C(=O)N[C@@H](CC(C)C)C(=O)N[C@@H](CCCCN)C(=O)N1CCC[C@H]1C(=O)N[C@H](C(=O)N[C@@H](CO)C(=O)N[C@@H](CO)C(=O)O)[C@@H](C)CC)[C@@H](C)O [SEQ ID NO: 47]
Inhibition of TNF-α [1]: 36.9 ± 2.2%
LDH Release (OD490 nm) [2]: 1.05 ± 0.05 OD490 nm
OD490 nm (WST-1 cell viability) (HBE cells): 1.14 ± 0.23 OD490 nm
IL-8 [3]: 0.383 ng/mL
MIC, S. aureus ([4]; overnight, 96-well plate): >

N#CC(=C(/N)Sc1ccccc1N)/C(C#N)=C(\N)Sc1ccccc1N [U 0126]
Effect: bacterial filamentation (bacterial stress) (S. Typhimurium SL1344): Decrease bacterial filamentation (bacterial stress)^c
Effect: number of intracellular S. Typhimurium (S. Typhimurium SL1344): Increase in the number of intracellular S. Typhimurium

DLPAKRGSAPGST (Cationic peptide) [SEQ ID NO: 12, Formula B cationic peptide]
Inhibition of TNF-α [1]: 52.1 ± 0.38%
Survival (BALB/c mice): 17%
MIC, E. coli ([4]; Escherichia coli, overnight, 96-well plate): >
MIC, S. aureus ([4]; overnight, 96-well plate): >

SDF-1
Migration (%) (Human Jurkat T cells; Experiment 1): 32%
Migration (%) (Human Jurkat T cells; Experiment 2): 40%

SLPIKHDRLPATS [SEQ ID NO: 15]
Inhibition of TNF-α [1]: 69.4 ± 0.84%
Survival (BALB/c mice): 0%
MIC, C. rhod. ([4]; 24 h): 128 µg/mL
MIC, E. coli ([4]; 24 h): 128 µg/mL
MIC, EHEC ([4]; 24 h): 64 µg/mL
MIC, S. aureus ([4]; overnight, 96-well plate): >
